Drawing on DBAASP, this text covers MIC for five compounds.

Among the test systems are Escherichia coli K99; Escherichia coli K88; Escherichia coli UB1005; Bacillus subtilis 168; Escherichia coli 078; Streptococcus agalactiae; Escherichia coli ML-35p.
Experiment in all cases: ≥ marks a high value that may be exact or a test limit, other limits are often not marked, values filed in µg/mL are converted to µM
The test system of assay [1] is Salmonella enterica subsp. enterica serovar Pullorum C79-13.
Assay [2] has as its system Lacticaseibacillus rhamnosus 1.0385.
Assay [3] relates to Lactiplantibacillus plantarum 8014.
For assay [4], the system named is Staphylococcus aureus ATCC 29213.
Assay [5] has as its system Lacticaseibacillus rhamnosus 1.0911.
Assay [6] relates to Salmonella enterica subsp. enterica serovar Typhimurium C77-31.
Assay [7] deals with Staphylococcus aureus ATCC 43300.
In assay [8] the test system is Escherichia coli ATCC 25922.
In assay [9] the test system is Salmonella enterica subsp. enterica serovar Typhimurium ATCC 14028.
Assay [10] relates to Lacticaseibacillus rhamnosus 1.0936.
Assay [11] relates to Staphylococcus aureus ATCC 25923.
Assay [12] relates to Lacticaseibacillus rhamnosus 7469.
The test system of assay [13] is Pseudomonas aeruginosa ATCC 27853.
Assay [14] deals with Bacillus anthracis Sterne 34F2.
Assay [15] relates to Klebsiella pneumoniae NCTC 9633.
Assay [16] relates to Pseudomonas aeruginosa PAO1.
Assay [17] has as its system Mycobacterium tuberculosis H37Ra.
Assay [18] has as its system Staphylococcus aureus USA 300.
The test system of assay [19] is Acinetobacter baumannii ATCC 19606.
For assay [20], the system named is Escherichia coli DH5alpha.
The test system of assay [21] is Haemophilus influenzae ATCC 49247.
Assay [22] deals with Staphylococcus aureus NRS 72.
Assay [23] deals with Streptococcus agalactiae CICC 10465.
Assay [24] concerns Staphylococcus epidermidis ATCC 12228.
Assay [25] relates to Streptococcus thermophilus YM-C.
The test system of assay [26] is Salmonella enterica subsp. enterica serovar Pullorum ATCC 7913.
Assay [27] has as its system Klebsiella pneumoniae ESBL 344/17.
For assay [28], the system named is Pseudomonas aeruginosa 522/17.
Assay [29] relates to Staphylococcus aureus SG511.
The test system of assay [30] is Staphylococcus aureus ATCC 33591.
In assay [31] the test system is Escherichia coli ESBL 521/17.
The test system of assay [32] is Staphylococcus aureus 1399/17.
Assay [33] relates to Acinetobacter baumannii 7226/16.
Assay [34] has as its system Klebsiella pneumoniae KCTC 2242.
For assay [35], the system named is Candida albicans KACC 30071.
For assay [36], the system named is Bacillus subtilis KACC 10196.
In assay [37] the test system is Escherichia coli KACC 1039.
Assay [38] concerns Enterococcus faecalis KACC 11304.
The subject of assay [39] is Pseudomonas aeruginosa KACC 10259.
Assay [40] deals with Staphylococcus aureus KACC 10196.

Converted amounts (≈) assume the structure as drawn.

Regarding `CC(C)C[C@H](NC(=O)[C@H](CC(C)C)NC(=O)[C@H](Cc1c[nH]c2ccccc12)NC(=O)[C@H](Cc1c[nH]c2ccccc12)NC(=O)[C@H](Cc1c[nH]c2ccccc12)NC(=O)[C@H](CCCN=C(N)N)NC(=O)[C@H](CS)NC(=O)[C@H](Cc1ccccc1)NC(=O)[C@H](Cc1ccc(O)cc1)NC(=O)[C@H](CO)NC(=O)[C@H](C)NC(=O)[C@@H](N)CS)C(N)=O` [CASYFCRWWWLL], the MIC in [1] was at least 64 µM; in the assay on Escherichia coli K99, at least 64 µM; in [2], at least 64 µM; with Escherichia coli K88 it was at least 64 µM; in [3], at least 64 µM; in [4], over 64 µM. Also, the MIC in the assay with Escherichia coli UB1005 was at least 64 µM; in assay [5], at least 64 µM; in [6], at least 64 µM; in assay [7], over 64 µM; in assay [8], over 64 µM; in [9], over 64 µM. In addition, the MIC in [10] is at least 64 µM; in assay [11], over 64 µM; in assay [12], at least 64 µM; in assay [13], over 64 µM.

As to `CC(C)[C@H](NC(=O)[C@H](Cc1c[nH]c2ccccc12)NC(=O)[C@H](Cc1cnc[nH]1)NC(=O)[C@H](CCCN=C(N)N)NC(=O)[C@H](CCCN=C(N)N)NC(=O)[C@H](Cc1c[nH]c2ccccc12)NC(=O)[C@H](Cc1c[nH]c2ccccc12)NC(=O)[C@H](Cc1cnc[nH]1)NC(=O)[C@H](Cc1c[nH]c2ccccc12)NC(=O)[C@H](CCCN=C(N)N)NC(=O)[C@@H](N)CCCCN)C(=O)N[C@H](C(=O)N[C@@H](Cc1c[nH]c2ccccc12)C(N)=O)C(C)C` [KRWHWWRRHWVVW], the MIC in [14] is at least 80 µM; in assay [15] it was at least 80 µM; in [16], 50 µM (≈ 101 µg/mL); against Bacillus subtilis 168, 0.2 µM (≈ 0.403 µg/mL); in [17] it was 2.5 µM (≈ 5.04 µg/mL); in assay [18], at least 80 µM. Moreover, the MIC was 50 µM (≈ 101 µg/mL) in assay [19], 25 µM (≈ 50.4 µg/mL) in assay [20], at least 80 µM in assay [21] and at least 80 µM in assay [22].

For the compound `CC[C@H](C)[C@H](NC(=O)CNC(=O)[C@@H](NC(=O)[C@@H](N)CC(C)C)[C@@H](C)CC)C(=O)N[C@H](C(=O)N[C@@H](CC(=O)O)C(=O)NCC(=O)N[C@H](C(=O)N[C@@H](CCCCN)C(=O)N[C@@H](CCC(=O)O)C(=O)N[C@@H](CCCN=C(N)N)C(=O)N[C@@H](CCCCN)C(=O)N[C@@H](CCCCN)C(=O)N[C@@H](CCCN=C(N)N)C(=O)N[C@@H](CCCN=C(N)N)C(=O)N[C@@H](CCCN=C(N)N)C(N)=O)C(C)C)[C@@H](C)CC` [LIGIIDGVKERKKRRR], the MIC is at least 64 µM in the assay with Escherichia coli 078; at least 64 µM in assay [23]; over 64 µM in assay [4]; at least 64 µM in the assay on Escherichia coli UB1005; over 64 µM in assay [24]; at least 64 µM in assay [6]. Also, the MIC is at least 64 µM in assay [25]; over 64 µM in assay [8]; over 64 µM in assay [9]; over 64 µM in [11]; at least 64 µM in assay [12]; at least 64 µM in assay [26]. The figures for the MIC (in assay [13]; in the assay with Streptococcus agalactiae) were over 64 µM and at least 64 µM, respectively.

Consider `CC[C@H](C)[C@H](NC(=O)[C@@H]1CCCN1C(=O)[C@@H]1CCCN1C(=O)[C@H](CCCN=C(N)N)NC(=O)[C@H](CCCN=C(N)N)NC(=O)[C@H](Cc1ccccc1)NC(=O)[C@@H]1CCCN1C(=O)[C@H](CC(C)C)NC(=O)[C@H](CCCN=C(N)N)NC(=O)[C@H](Cc1ccccc1)NC(=O)[C@@H](N)CCCN=C(N)N)C(=O)N[C@@H](CCCN=C(N)N)C(=O)N[C@H](C(=O)N1CCC[C@H]1C(=O)N1CCC[C@H]1C(=O)N1CCC[C@H]1C(=O)N[C@@H](Cc1ccccc1)C(=O)N[C@@H](Cc1ccc(O)cc1)C(=O)N1CCC[C@H]1C(=O)N1CCC[C@H]1C(=O)N[C@@H](Cc1ccccc1)C(=O)N[C@@H](CCCN=C(N)N)C(=O)N[C@@H](CCCN=C(N)N)C(=O)N[C@@H](Cc1ccccc1)C(=O)N[C@@H](CC(C)C)C(N)=O)[C@@H](C)CC` [RFRLPFRRPPIRIPPPFYPPFRRFL], for which the MIC in assay [27] turned out to be 2 µM (≈ 6.48 µg/mL); in assay [28], 11.3 µM (≈ 36.6 µg/mL); in [29] it was 0.5 µM (≈ 1.62 µg/mL); in [30], 16 µM (≈ 51.8 µg/mL); in the assay on Escherichia coli ML-35p, 4 µM (≈ 13 µg/mL); in assay [31] it was 2 µM (≈ 6.48 µg/mL). The MIC was found to be 4 µM (≈ 13 µg/mL) in assay [32] and 8 µM (≈ 25.9 µg/mL) in assay [33].

Consider `CC[C@H](C)[C@H](NC(=O)[C@H](CO)NC(=O)[C@@H](NC(=O)[C@H](CCCCN)NC(=O)[C@H](Cc1ccccc1)NC(=O)[C@@H]1CCCN1C(=O)[C@H](CCCCN)NC(=O)[C@H](CCCCN)NC(=O)[C@H](Cc1ccccc1)NC(=O)[C@@H](NC(=O)[C@H](CCCCN)NC(=O)[C@H](Cc1c[nH]c2ccccc12)NC(=O)[C@@H](N)CCCN=C(N)N)[C@@H](C)CC)[C@@H](C)CC)C(=O)N[C@@H](Cc1cnc[nH]1)C(=O)N[C@@H](CC(C)C)C(N)=O` [RWKIFKKPFKISIHL], for which the MIC worked out at 1 µM (≈ 1.94 µg/mL) in [34]; 4 µM (≈ 7.76 µg/mL) in assay [35]; 1 µM (≈ 1.94 µg/mL) in assay [36]; 1 µM (≈ 1.94 µg/mL) in assay [37]; 4 µM (≈ 7.76 µg/mL) in assay [38]; 1 µM (≈ 1.94 µg/mL) in [39]. In [40], the MIC was determined as 4 µM (≈ 7.76 µg/mL).
